Here are results for 5 compounds from publication PMC7318222, “A Family of Water‐Immiscible, Dipolar Aprotic, Diamide Solvents from Succinic Acid” (Chemsuschem, 2020).

One experiment relates to TCF. The experiment can be described thus: TCF CALUX assay (Wnt signaling). It counts as cell-based, human. Also noted: key: –: no effect observed up to the highest test concentration. The following applies: cell signaling pathway assay, 24 h exposure. The text has this: (§1) Six of the CALUX assays (TCF through p53) detect activation of several cellular signaling pathways, which are indicative of general stress and acute toxicity, but also a range of more specific types of toxicity, including reproductive toxicity. […]
2-methylimidazole 99.0%, zinc(II) nitrate hexahydrate ≥99.0%, para-cymene 99.0%, 1,4-dioxane 99.8% (anhydrous), 4-nitroaniline ≥99.0%, 1-octanol ≥99.0%, diglyme ≥99.0%, DMSO-d6 (99.8% D) and chloroform-d (99.8% D) were purchased from Sigma-Aldrich. Toluene ≥99.0%, hexane ≥99.5%, DCM ≥99.5%, chloroform ≥99.5%, DMSO ≥99.0% were purchased from VWR. N,N-diethyl-4-nitroaniline ≥98.0% was purchased from Alfa Aeser. Cyrene was supplied by Circa group. N-butylpyrrolidinone was supplied by Eastman chemicals. N,N-dimethylformamide 99.9% and N,N-dimethylacetamide 99.9% were purchased from Fischer. The flakes of Ultrason® E3020 P Polyarylethersulfone of 55,000 Da were obtained from INGE.BASF, Germany. The CALUX cell lines have been described previously.[1] They are based on human U2-OS cells (ATCC, HTB-96) stably transfected with an expression construct for the full-length human receptor under investigation, and a reporter construct consisting of multimerized responsive elements for the cognate receptor coupled to a minimal promoter element (TATA) and a luciferase gene. Cells were maintained as described previously,[2] using cell culture media and supplements from Fisher Scientific as described in the experimental procedures section. […]
(§2) In vitro reporter gene assays
(§3) The automated CALUX assays were carried out similarly as described earlier,[12] with some adaptations. In brief, the assay was performed in CO2 independent medium (Fisher Scientific, […]
(§4) supplement (Fisher Scientific, 11574466), 10 U/mL penicillin and 10 µg/mL streptomycin. A cell suspension in assay medium was made of 1 × 10^5cells/mL, and white 384-wells plates were seeded with 30 µl cell suspension/well. After 24 h, exposure medium was prepared. A dilution series in 0.5log unit increments of each test compound (in DMSO) was added to a 96-wells plate containing assay medium (2% v/v). Of this exposure mixture, 30 µl was added to the assay plates containing the CALUX cells, resulting in a final DMSO concentration of 1%. Additionally, DMSO blanks and a full dose response curve of the relevant reference compound were included on each plate. All samples were tested in triplicate. The preparation of the compound dilution series as well as the exposure of the cells were performed on a Hamilton StarLET liquid handling robot coupled to a Cytomat incubator.
(§5) Directly after exposure, plates were sealed with non-breathing plate seals (Plate sealer, easy seal transparent; Greiner-Bio-One, 676001). After 24 h the exposure medium was removed using an EL406 washer-dispenser (BioTek) and 10 µl/well triton lysisbuffer was added by the EL406.
(§6) Subsequently, the luciferase signal was measured in a luminometer (InfinitePro coupled to a Connect Stacker, both TECAN). In order to be able to detect receptor antagonism, several assays were also performed in antagonistic mode. The assay procedure was as described above, with the only exception that the EC50 concentration of the reference agonist was present during the exposure.
The luminometer data was analysed as follows; the average of the triplicate wells was determined, and the average blank (DMSO) value was subtracted. […] For antagonist- and cytotoxicity experiments, PC20 values were determined instead, which was defined […]

The subject of another experiment is AP1. The experiment can be described thus: AP1 CALUX assay (cell cycle control). It counts as cell-based, human. Also on record: key: –: no effect observed up to the highest test concentration. The note with it: cell signaling pathway assay, 24 h exposure.
Description: as §1
DCM ≥99.5%, chloroform ≥99.5%, DMSO ≥99.0% were purchased from VWR. […]
Polyarylethersulfone of 55,000 Da were obtained from INGE.BASF, Germany. The CALUX cell lines have been described previously.[1] They are based on human U2-OS cells (ATCC, HTB-96) stably transfected with an expression construct for the full-length human receptor under investigation, and a reporter construct consisting of multimerized responsive elements for the cognate receptor coupled to a minimal promoter element (TATA) and a luciferase gene. Cells were maintained as described previously,[2] using cell culture media and supplements from Fisher Scientific as described in the experimental procedures section. […]
as §2, §3, §4, §5, §6
The luminometer data was analysed as follows; the average of the triplicate wells was determined, and the average blank (DMSO) value was subtracted. For receptor-based assays the maximum response elicited by the reference compound was set to 100% (full receptor- or pathway activation), and the other values were scaled accordingly. GraphPad Prism was used to fit a sigmoidal curve through the data (four parameters, variable slope). […] For antagonist- and cytotoxicity experiments, PC20 values were determined instead, which was defined as the concentration where the test compound causes a 20% decrease in the basal signal, which was […]
curve, the signal induction above background (DMSO) was determined, and the concentration where the compound elicited a 1.5-fold increase above background was used as LEC.

`CCCCN(CC)C(=O)CCC(=O)N(CC)CCCC` [EBSA, N,N′‐diethyl‐N,N′‐dibutylsuccindiamide]: in the experiment with TCF, the “LEC TCF” value was “–”. Moreover, the “LEC AP1” value in the experiment with AP1 was “–”.

`CCCCN(C)C(=O)CCC(=O)N(C)CCCC` [MBSA, N,N′‐dimethyl‐N,N′‐dibutylsuccindiamide]: the “LEC TCF” value in the experiment on TCF is listed as “–”. In addition, the “LEC AP1” value in the experiment with AP1 is “–”.

On to `CCCCN1CCCC1=O` [NBP, N‐Butylpyrrolidinone, reference compound], for which the “LEC TCF” value in the experiment with TCF was “–”. In the experiment on AP1, the “LEC AP1” value was “–”.

For `CN1CCCC1=O` [NMP, N‐methyl‐2‐pyrrolidone, reference compound], in the experiment with TCF, the “LEC TCF” value is reported as −2.1 Log M. Also, the “LEC AP1” value in the experiment on AP1 is −1.5 Log M.

As for `CCCCN(CCCC)C(=O)CCC(=O)N(CCCC)CCCC` [TBSA, N,N,N′,N′‐tetrabutylsuccindiamide], the “LEC TCF” value in the experiment on TCF was “–”. Further, in the experiment with AP1, the “LEC AP1” value is reported as “–”.
